Data: article PMC7497692 (Investigational New Drugs, 2020)
Where “and” joins values, the source holds several entries; their conditions need not be identical. Identical values can stand only once. Like-named read-outs stand apart in the source and are kept apart here.

Columns and labels:
[1] = Mass balance: excretion of radioactivity in urine and feces after oral [14C]-tepotinib (part A); type: in vivo, human healthy male volunteers
Method: (§1) Participants were hospitalized from day 1 to day 16 of the study, and further assessed on days 19, 22, and 25 (trial end). […] Pre-dose feces and urine samples were collected on day 1 and day 2, respectively. Urine was collected at 4- to 12-h intervals on day 1 and every 24 h thereafter up to day 16. Feces were collected every 24 h up to day 16. Provision was made to collect further samples up to day 39 if >1% of the administered dose was detectable in the total (urine and feces) excreta per day on two consecutive measurements.
Total radioactivity in blood, plasma, urine, and feces samples, and quick counts in urine and feces samples were determined at the bioanalytical laboratory of PRA (Assen, The Netherlands) using liquid scintillation counting (LSC). Scintillation cocktail Ultima Gold™ (5 mL; Perkin Elmar, Waltham, Massachusetts, USA) was directly spiked into 250 μL plasma and 1000 μL urine samples, respectively, whereas 300 μL aliquots of blood samples were solubilized and decolorized before adding 18 mL of the scintillation cocktail prior to LSC. Feces samples were (quantitatively) homogenized with one or two weight equivalents of water, and an accurately weighted aliquot of approximately 500 mg of the homogenate was dried at 50 °C for at least 3 h. After addition of 100 μL combustion aid, the dried samples were combusted in a sample oxidizer model 307 (Perkin Elmer, Waltham, Massachusetts, USA) using 7 mL CarboSorb® E as an absorber agent for carbon dioxide. At the end of the combustion cycle, the absorber was mixed with 13 mL of the scintillant PermaFluor® E. All scintillation counting using either low-level or normal count modes was carried out in duplicate using a Tri-Carb 3100 TR liquid scintillation analyzer (Perkin Elmer, Waltham, Massachusetts, USA), in compliance with analytical procedures validated by the PRA.
The maximum plasma concentration (Cmax) and time to reach maximum concentration (tmax) were derived directly from the plasma concentration–time data. Lag time (tlag) was the time prior to the first measurable (non-zero) concentration. The area under the plasma concentration–time curve from 0 to t (last measurable concentration; AUC0–t) was calculated using a mixed log–linear trapezoidal method. Area under the plasma concentration–time curve until the last sampling time (AUCall), which corresponds to AUC0–240 h within the observation period, was used for metabolite calculations. Amounts excreted in urine, feces, and total (urine + feces) were calculated as the sum of amounts (concentration multiplied by volume) for each collection from time 0 to time t. The terminal rate constant (λz) was used to estimate the terminal half-life (t½) (ln 2/λz), and the area under the concentration–time curve from time 0 to infinity (AUC0–∞). Total body clearance (CL) and apparent body clearance (CL/f) were determined by dose/AUC0–∞, and total volume of distribution (Vz) and apparent volume of distribution (Vz/f) were calculated by dose/(AUC0–∞*λz) after IV and oral administration, respectively. Volume of distribution of the central compartment (Vc) was derived by dividing the dose by the initial drug plasma concentration after IV administration. Absolute bioavailability was calculated as F = (AUCoral/doseoral)/(AUCIV/doseIV) × 100. The ratios (%) AUCtepotinib or metabolite/AUCtotal radioactivity were calculated as a percentage of the molar AUCs.

[2] = Unbound fraction of tepotinib in plasma, ex vivo equilibrium dialysis (part A); type: in vitro ADME, human healthy male volunteers; conditions: male, human, 498 mg
Method: as §1
Plasma (300 μL) was dialyzed against 100 mM sodium phosphate buffer (pH 7.4) in an orbital shaker at 37 °C for 18 h. The deuterated internal standard [^2H]-MSC2156119A and 100 mM sodium phosphate buffer (pH 7.4) were added to 5 μL of the dialyzed samples and centrifuged. Supernatant (30 μL) was diluted with acetonitrile/water (50 + 50, v/v) and centrifuged, and 5–20 μL aliquots were injected onto an XBridge C18 column (2.1 × 20 mm; 5 μm; Waters, Milford, Massachusetts, USA). Separation was carried out using a mobile phase gradient (eluent A: 5 mM ammonium bicarbonate in water; eluent B: 5 mM ammonium bicarbonate in methanol) with a flow rate of 1.2 mL/min. Mass spectrometric detection of tepotinib and its internal standard was performed as described above. The LLOQ was 0.015 ng/mL in plasma dialysates and 1.00 ng/mL in plasma. Calibration standards between 0.015 and 30.0 ng/mL (plasma dialysates), and between 1.00 ng/mL and 1000 ng/mL (plasma) were calculated by weighted (1/x^2) quadratic regression analysis, respectively.

[3] = Safety assessment (TEAEs, NCI-CTCAE v4.0); type: in vivo, human healthy male volunteers
Method: Treatment-emergent adverse events (TEAEs), changes in laboratory tests, ECG, vital signs, and physical examinations were assessed and graded using the National Cancer Institute Common Terminology Criteria for Adverse Events (NCI-CTCAE) version 4.0. All safety endpoints across both parts of the study were analyzed descriptively.

P-glycoprotein = test system: P-glycoprotein; design: method as in earlier work; conditions: cited from earlier work
[4] = design: method as in PMID 31822497; conditions: patients with solid tumors; cited from earlier work
[5] = design: method as in PMID 23553846; conditions: xenograft mice; cited from earlier work
[6] = cited from earlier work
[7] = geometric mean of n=6, % of total radioactive dose, oral part A, listed as [^14C]-tepotinib
[8] = individual subjects 1–6, % of total radioactive dose, single oral 498 mg tepotinib + 2.67 MBq [14C]-tepotinib
[9] = maximum of n=6, % of total radioactive dose, oral part A
[10] = median of n=6, % of total radioactive dose, oral part A, listed as [^14C]-tepotinib
[11] = minimum of n=6, % of total radioactive dose, oral part A
[12] = range of n=6, % of oral [14C]-tepotinib dose

CN1CCC(COc2cnc(-c3cccc(Cn4nc(-c5cccc(C#N)c5)ccc4=O)c3)nc2)CC1 [Tepotinib]
time up to which radioactivity was observed in urine ([1]; after dosing, below LLOQ at 312 and 336 h in two participants): up to 360 h | time of first radioactivity detected in feces ([1]; after oral dose, part A): 24 to 48 h | time within which radioactivity was observed in urine ([1]; first collection period, part A): ≤ 4 h | Ae0–t total, Geometric mean ([1]; geometric mean of n=6, % of total radioactive dose, oral part A): 91.90% | Ae0–t feces, Geometric mean [1, 7]: 77.9% and 77.87% | Ae0–t urine, Geometric mean [1, 7]: 13.6% and 13.61% | radioactivity not recovered ([1]; geometric mean, pie chart Fig. 1, oral part A): 8.5% | Ae0–t feces [1, 8]: 79.48% and 77.92% and 69.40% and 76.89% and 82.53% and 81.76% | Ae0–t total (urine + feces) [1, 8]: 88.28% and 91.60% and 87.12% and 93.36% and 94.46% and 96.93% | Ae0–t urine [1, 8]: 8.80% and 13.68% and 17.72% and 16.47% and 11.93% and 15.17% | Ae0–t feces, Max [1, 9]: 82.53% | Ae0–t total, Max [1, 9]: 96.93% | Ae0–t urine, Max [1, 9]: 17.72% | Ae0–t feces, Median [1, 10]: 78.7% | Ae0–t total, Median [1, 10]: 92.5% and 92.48% | Ae0–t urine, Median [1, 10]: 14.4% and 14.43% | Ae0–t feces, Min [1, 11]: 69.40% | Ae0–t total, Min [1, 11]: 87.12% | Ae0–t urine, Min [1, 11]: 8.80% | time up to which excretion of radioactivity in feces was noted ([1]; post-dose, all participants, part A): up to 360 h | radioactivity excreted in feces, range [1, 12]: 69.4–82.5% | radioactivity excreted in urine, range [1, 12]: 8.8–17.7% | [14C]-tepotinib dose recovered in excreta per day ([1]; two consecutive measurements, days 15 and 16, all subjects): < 1% | fraction unbound at 18 h ([2]; pH 7.4, ex vivo, 4–24 h after oral administration, read-out: highest free fraction observed in individual participants): 0.0325 | fraction unbound at 18 h ([2]; pH 7.4, ex vivo, 4–24 h after oral administration, read-out: lowest free fraction observed in individual participants): 0.0165 | fraction unbound at 18 h ([2]; pH 7.4, unbound fraction of tepotinib in plasma, median values, ex vivo, range of medians at 4, 8, 12 and 24 h after oral administration): 0.018 to 0.024 | number of TEAEs of grade one severity ([3]; NCI-CTCAE, of 19 TEAEs): 17 | deaths, serious or other significant adverse events ([3]; both parts): neither deaths, serious adverse events, nor other significant adverse events were reported | volunteers who experienced TEAEs ([3]; both parts, single 500 mg dose): 75% | healthy volunteers who experienced TEAEs ([3]; both parts, single oral 500 mg): Nine of 12 | number of TEAEs ([3]; in nine of 12 volunteers): 19 | number of TEAEs judged treatment related ([3]; of 19 TEAEs): Eight | tolerability ([3]; single oral dose of 500 mg, healthy volunteers): well tolerated | P-glycoprotein substrate status (P-glycoprotein): substrate of the drug efflux transporter P-glycoprotein | maximum tolerated dose (not reached at doses administered) [4]: > 1400 mg/day | tumor versus plasma concentration [5]: higher concentrations in xenograft tumors than in the plasma of mice | main binding partners in plasma [6]: human serum albumin and α-acid glycoprotein | unbound fraction of tepotinib in human plasma ([6]; in vitro, concentration range 0.3–10 μM): 1.6–3.4%
